From patent publication US12655116B2, “Substituted isophthalic acid diamides” (Bayer Aktiengesellschaft, priority 2020, dated 2026)

Columns and labels:
[1] = tested on: ABUTH; assay: Pre-emergence herbicidal action against ABUTH; type: in vivo, Abutilon theophrasti
Method in brief: (§1)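 Seeds sown in sandy loam, soil-covered; compound sprayed on soil surface pre-emergence. Application: WP/EC, 600–800 l/ha, 0.2% wetting agent. Readout: visual % damage at 3 weeks.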

[2] = tested on: ALOMY; assay: Pre-emergence herbicidal action against ALOMY; type: in vivo, Alopecurus myosuroides; details: pre-emergence
Method in brief: as §1

[3] = tested on: AMARE; assay: Pre-emergence herbicidal action against AMARE; type: in vivo, Amaranthus retroflexus
Method in brief: as §1

[4] = tested on: AVEFA; assay: Pre-emergence herbicidal action against AVEFA; type: in vivo, Avena fatua; details: pre-emergence
Method in brief: as §1

[5] = tested on: ECHCG; assay: Pre-emergence herbicidal action against ECHCG; type: in vivo, Echinochloa crus-galli; details: 80 g/ha
Method in brief: as §1

[6] = tested on: HORMU; assay: Pre-emergence herbicidal action against HORMU; type: in vivo, Hordeum murinum; details: 80 g/ha, pre-emergence
From the text: Seeds of monocotyledonous and dicotyledonous weed plants and crop plants are laid out in sandy loam soil in wood-fiber pots and covered with soil. The compounds of the invention, formulated in the form of wettable powders (WP) or as emulsion concentrates (EC), are then applied to the surface of the covering soil in the form of an aqueous suspension or emulsion at a water application rate equivalent to 600 to 800 l/ha, with addition of 0.2% wetting agent. After the treatment, the pots are placed in a greenhouse and kept under good growth conditions for the trial plants. The damage to the test plants is scored visually after a test period of 3 weeks by comparison with untreated controls (herbicidal activity in percent (%): 100% activity=the plants have died, 0% activity=like control plants). […] The tables below illustrate, in an illustrative manner, the post-emergence herbicidal action of the compounds of the invention, the herbicidal activity being stated in percent.

[7] = tested on: MATIN; assay: Pre-emergence herbicidal action against MATIN; type: in vivo, Matricaria inodora
Method in brief: as §1

[8] = tested on: POLCO; assay: Pre-emergence herbicidal action against POLCO; type: in vivo, Polygonum convolvulus; details: Fallopia convolvulus, 504 h
Method in brief: as §1

[9] = tested on: SETVI; assay: Pre-emergence herbicidal action against SETVI; type: in vivo, Setaria viridis; details: Setaria viridis, 504 h
Method in brief: as §1

[10] = tested on: STEME; assay: Pre-emergence herbicidal action against STEME; type: in vivo, Stellaria media
Method in brief: as §1

[11] = tested on: VIOTR; assay: Pre-emergence herbicidal action against VIOTR; type: in vivo, Viola tricolor
Method in brief: as §1

[12] = tested on: DIGSA; assay: Pre-emergence herbicidal action against DIGSA; type: in vivo, Digitaria sanguinalis
Method in brief: as §1

[13] = tested on: ABUTH; assay: Post-emergence herbicidal action against ABUTH; type: in vivo, Abutilon theophrasti; details: visual assessment about 3 weeks after treatment vs untreated controls
Method in brief: (§2)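 Percent herbicidal action is rated by eye about 3 weeks after treatment against untreated controls, where 100% means dead plants and 0% means like controls. Plants in sandy loam are sprayed on green parts at the one-leaf stage with aqueous WP or EC preparations at 600 to 800 l/ha plus 0.2% wetting agent.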

[14] = tested on: ALOMY; assay: Post-emergence herbicidal action against ALOMY; type: in vivo, Alopecurus myosuroides; details: Alopecurus myosuroides, 504 h, dosage 20 g/ha, visual assessment about 3 weeks after treatment vs untreated controls
Method in brief: as §2

[15] = tested on: AMARE; assay: Post-emergence herbicidal action against AMARE; type: in vivo, Amaranthus retroflexus; details: 20 g/ha, visual assessment about 3 weeks after treatment, 100% = plants have died, 0% = like control plants
Method in brief: as §2

[16] = tested on: AVEFA; assay: Post-emergence herbicidal action against AVEFA; type: in vivo, Avena fatua; details: 20 g/ha, visual assessment about 3 weeks after treatment, 100% = plants have died, 0% = like control plants
Method in brief: as §2

[17] = tested on: MATIN; assay: Post-emergence herbicidal action against MATIN; type: in vivo, Matricaria inodora; details: dosage 20 g/ha
Method in brief: as §2

[18] = tested on: PHBPU; assay: Post-emergence herbicidal action against PHBPU; type: in vivo, Pharbitis purpurea; details: Ipomoea purpurea, 504 h
Method in brief: as §2

[19] = tested on: SETVI; assay: Post-emergence herbicidal action against SETVI; type: in vivo, Setaria viridis; details: Setaria viridis, 504 h
Method in brief: as §2

[20] = tested on: STEME; assay: Post-emergence herbicidal action against STEME; type: in vivo, Stellaria media
Method in brief: as §2

[21] = tested on: VERPE; assay: Post-emergence herbicidal action against VERPE; type: in vivo, Veronica persica; details: 20 g/ha
Method in brief: as §2

[22] = tested on: VIOTR; assay: Post-emergence herbicidal action against VIOTR; type: in vivo, Viola tricolor
Method in brief: as §2

[23] = tested on: DIGSA; assay: Post-emergence herbicidal action against DIGSA; type: in vivo, Digitaria sanguinalis; details: Digitaria sanguinalis, 504 h
Method in brief: as §2

[24] = tested on: PHBPU; assay: Pre-emergence herbicidal action against PHBPU; type: in vivo, Pharbitis purpurea; details: dosage 80 g/ha
Method in brief: as §1

[25] = tested on: VERPE; assay: Pre-emergence herbicidal action against VERPE; type: in vivo, Veronica persica; details: dosage 80 g/ha
Method in brief: as §1

[26] = 80 g/ha, scored visually after 3 weeks vs untreated controls (100% = plants have died, 0% = like control plants)

CCNC(=O)c1c(C(F)(F)F)ccc(C(=O)Nc2nnnn2C)c1Br [Example 1-208]
pest or weed control at 80 g/ha ([1]; Abutilon theophrasti, 504 h, 80 g/ha, scored visually after 3 weeks vs untreated controls (100% = plants have died, 0% = like control plants)): 100%
pest or weed control at 20 g/ha ([1]; Abutilon theophrasti, 504 h, dosage 20 g/ha, scored visually after 3 weeks vs untreated controls, 100% = plants have died, 0% = like control plants, read-out: Pre-emergence action against ABUTH (herbicidal activity in percent)): 100%
pest or weed control at 80 g/ha ([2]; Alopecurus myosuroides, 504 h, 80 g/ha, scored visually after 3 weeks vs untreated controls (100% = plants have died, 0% = like control plants)): 100%
pest or weed control at 20 g/ha ([2]; Alopecurus myosuroides, 504 h, 20 g/ha, scored visually after 3 weeks, 100% = plants have died, 0% = like control plants): 80%
pest or weed control at 20 g/ha ([3]; Amaranthus retroflexus, 504 h, 20 g/ha, scored visually after 3 weeks vs untreated controls, 100% = plants have died, 0% = like control plants): 100%
pest or weed control at 80 g/ha ([3]; Amaranthus retroflexus, 504 h, 80 g/ha, scored visually after 3 weeks vs untreated controls, 100% = plants have died, 0% = like control plants): 100%
pest or weed control at 80 g/ha ([4]; Avena fatua, 504 h, 80 g/ha): 100%
pest or weed control at 20 g/ha ([4]; Avena fatua, 504 h, 20 g/ha, scored visually after 3 weeks, 100% = plants have died, 0% = like control plants): 80%
pest or weed control at 80 g/ha ([5]; Echinochloa crus-galli, 504 h): 100%
pest or weed control at 80 g/ha ([6]; Hordeum murinum, 504 h): 80%
pest or weed control at 20 g/ha ([7]; Tripleurospermum inodorum, 504 h, dosage 20 g/ha): 90%
pest or weed control at 80 g/ha ([7]; Tripleurospermum inodorum, 504 h, dosage 80 g/ha): 100%
pest or weed control at 20 g/ha ([8]; dosage 20 g/ha): 80%
pest or weed control at 80 g/ha ([8]; dosage 80 g/ha): 90%
pest or weed control at 20 g/ha ([9]; dosage 20 g/ha): 100%
pest or weed control at 80 g/ha ([9]; dosage 80 g/ha): 100%
pest or weed control at 20 g/ha ([10]; Stellaria media, 504 h, dosage 20 g/ha): 100%
pest or weed control at 80 g/ha ([10]; Stellaria media, 504 h, dosage 80 g/ha): 100%
pest or weed control at 20 g/ha ([11]; Viola tricolor, 504 h, dosage 20 g/ha): 100%
pest or weed control at 80 g/ha ([11]; Viola tricolor, 504 h, dosage 80 g/ha): 100%
pest or weed control at 20 g/ha ([12]; Digitaria sanguinalis, 504 h, dosage 20 g/ha): 100%
pest or weed control at 80 g/ha ([12]; Digitaria sanguinalis, 504 h, dosage 80 g/ha): 100%
pest or weed control at 5 g/ha ([13]; Abutilon theophrasti, 504 h, dosage 5 g/ha): 80%
pest or weed control at 20 g/ha ([13]; Abutilon theophrasti, 504 h, dosage 20 g/ha): 90%
pest or weed control at 20 g/ha [14]: 80%
pest or weed control at 20 g/ha ([15]; Amaranthus retroflexus, 504 h): 100%
pest or weed control at 20 g/ha ([16]; Avena fatua, 504 h): 90%
pest or weed control at 20 g/ha ([17]; Tripleurospermum inodorum, 504 h): 80%
pest or weed control at 5 g/ha ([18]; dosage 5 g/ha): 80%
pest or weed control at 20 g/ha ([18]; dosage 20 g/ha): 90%
pest or weed control at 5 g/ha ([19]; dosage 5 g/ha): 80%
pest or weed control at 20 g/ha ([19]; dosage 20 g/ha): 80%
pest or weed control at 20 g/ha ([20]; Stellaria media, 504 h, 20 g/ha): 90%
pest or weed control at 5 g/ha ([20]; Stellaria media, 504 h, dosage 5 g/ha): 90%
pest or weed control at 20 g/ha ([21]; Veronica persica, 504 h): 80%
pest or weed control at 5 g/ha ([22]; Viola tricolor, 504 h, 5 g/ha): 80%
pest or weed control at 20 g/ha ([22]; Viola tricolor, 504 h, 20 g/ha): 100%
pest or weed control at 5 g/ha ([23]; 5 g/ha): 80%
pest or weed control at 20 g/ha ([23]; 20 g/ha): 90%

CCCn1nnnc1NC(=O)c1ccc(C(F)(F)F)c(C(=O)NC(C)=O)c1Cl [Example 3-337]
Pre-emergence action against ABUTH (herbicidal activity) [1, 26]: 100%
Pre-emergence action against ABUTH (herbicidal activity in percent) ([1]; dosage 20 g/ha, scored visually after 3 weeks vs untreated controls, 100% = plants have died, 0% = like control plants): 100%
Pre-emergence action against ALOMY (herbicidal activity) [2, 26]: 100%
Pre-emergence action against AMARE in % ([3]; 20 g/ha, scored visually after 3 weeks vs untreated controls, 100% = plants have died, 0% = like control plants): 100%
Pre-emergence action against AMARE in % [3, 26]: 100%
Pre-emergence action against AVEFA in % ([4]; 80 g/ha): 100%
Pre-emergence action against ECHCG in % [5]: 90%
Pre-emergence action against HORMU in % [6]: 100%
Pre-emergence action against MATIN in % ([7]; dosage 80 g/ha): 100%
Pre-emergence action against PHBPU in % [24]: 90%
Pre-emergence action against STEME in % ([10]; dosage 80 g/ha): 100%
Pre-emergence action against VERPE in % [25]: 100%
Pre-emergence action against VIOTR in % ([11]; dosage 20 g/ha): 100%
Pre-emergence action against VIOTR in % ([11]; dosage 80 g/ha): 100%
Pre-emergence action against DIGSA in % ([12]; dosage 20 g/ha): 90%
Pre-emergence action against DIGSA in % ([12]; dosage 80 g/ha): 100%
Post-emergence action against ABUTH in % ([13]; dosage 5 g/ha): 80%
Post-emergence action against ABUTH in % ([13]; dosage 20 g/ha): 80%
Post-emergence action at 20 g/ha against AMARE in % [15]: 100%
Post-emergence action at 20 g/ha against AVEFA in % [16]: 80%
Post-emergence action against MATIN in % [17]: 80%
Post-emergence action against STEME in % ([20]; 20 g/ha): 100%
Post-emergence action against VERPE in % [21]: 90%
Post-emergence action against VIOTR in % ([22]; 20 g/ha): 100%
